# Source: paper PMC5218480 (PLoS ONE, 2017)
# Tested on: MV-4-11 cells
# Test: Gene expression microarray analysis (Affymetrix PrimeView) and GSEA
# Type: cell-based, human
# Set-up: RFU PODN (11730768_x_at) / Fold change /veh PODN (11730768_x_at) / RFU LINC00158 (11744669_a_at) / Fold change /veh LINC00158 (11744669_a_at) / RFU DUSP10 (11751237_a_at) / Fold change /veh DUSP10 (11751237_a_at) / RFU ID3 (11757404_x_at) / Fold change /veh ID3 (11757404_x_at) / RFU PLEKHG5 (11737974_s_at) / Fold change /veh PLEKHG5 (11737974_s_at) / RFU LRRC4B (11730491_at) / Fold change /veh LRRC4B (11730491_at) / RFU GIMAP4 (11747438_a_at) / Fold change /veh GIMAP4 (11747438_a_at) / RFU KRT8 (11758183_x_at) / Fold change /veh KRT8 (11758183_x_at) / RFU CNN1 (11734310_a_at) / Fold change /veh CNN1 (11734310_a_at) / RFU VPS37D (11726825_at) / Fold change /veh VPS37D (11726825_at) / RFU C10orf10 (11716522_x_at) / Fold change /veh C10orf10 (11716522_x_at) / RFU KIR2DL2 /// KIR2DL4 /// KIR2DL5A /// KIR2DL5B /// KIR2DS1 /// KIR2DS2 /// KIR2DS3 /// KIR2DS4 /// KIR3DL3 /// KIR3DL3 /// KIR3DS1 (11738374_at) / Fold change /veh KIR2DL2 /// KIR2DL4 /// KIR2DL5A /// KIR2DL5B /// KIR2DS1 /// KIR2DS2 /// KIR2DS3 /// KIR2DS4 /// KIR3DL3 /// KIR3DL3 /// KIR3DS1 (11738374_at) / RFU C1QL1 (11718748_at) / Fold change /veh C1QL1 (11718748_at) / RFU TMPRSS4 (11747572_a_at) / Fold change /veh TMPRSS4 (11747572_a_at) / RFU HAMP (11756126_x_at) / Fold change /veh HAMP (11756126_x_at) / RFU RNFT2 (11725882_a_at) / Fold change /veh RNFT2 (11725882_a_at) / RFU NR4A2 (11747474_a_at) / Fold change /veh NR4A2 (11747474_a_at) / RFU ABCC12 (11746883_a_at) / Fold change /veh ABCC12 (11746883_a_at) / RFU TMEM136 (11760407_x_at) / Fold change /veh TMEM136 (11760407_x_at) / RFU CLDN22 /// WWC2 (11732394_at) / Fold change /veh CLDN22 /// WWC2 (11732394_at) / RFU HLA-DPB1 (11760878_x_at) / Fold change /veh HLA-DPB1 (11760878_x_at) / RFU SPINT1 (11716480_a_at) / Fold change /veh SPINT1 (11716480_a_at) / RFU GAP43 (11754022_s_at) / Fold change /veh GAP43 (11754022_s_at) / RFU A4GNT (11735810_at) / Fold change /veh A4GNT (11735810_at) / RFU PRB3 (11715151_x_at) / Fold change /veh PRB3 (11715151_x_at) / RFU TUBB4B (11761932_at) / Fold change /veh TUBB4B (11761932_at) / RFU CAPN14 (11732068_a_at) / Fold change /veh CAPN14 (11732068_a_at) / RFU TMCC2 (11721928_a_at) / Fold change /veh TMCC2 (11721928_a_at) / RFU IRGQ (11745062_a_at) / Fold change /veh IRGQ (11745062_a_at) / RFU FAM174B (11720279_a_at) / Fold change /veh FAM174B (11720279_a_at) / RFU TMPRSS4 (11748680_a_at) / Fold change /veh TMPRSS4 (11748680_a_at) / RFU FAM212B (11763350_a_at) / Fold change /veh FAM212B (11763350_a_at) / RFU PLEKHG5 (11743358_a_at) / Fold change /veh PLEKHG5 (11743358_a_at) / RFU ZSCAN30 (11745921_a_at) / Fold change /veh ZSCAN30 (11745921_a_at) / RFU CMKLR1 (11741424_a_at) / Fold change /veh CMKLR1 (11741424_a_at) / RFU LOC101060620 /// MAPK8IP1 (11723275_at) / Fold change /veh LOC101060620 /// MAPK8IP1 (11723275_at) / RFU SPTSSB (11747773_x_at) / Fold change /veh SPTSSB (11747773_x_at) / RFU PRSS12 (11739890_at) / Fold change /veh PRSS12 (11739890_at) / RFU BIN1 (11741810_x_at) / Fold change /veh BIN1 (11741810_x_at) / RFU WNT11 (11732464_a_at) / Fold change /veh WNT11 (11732464_a_at) / RFU C10orf10 (11716521_a_at) / Fold change /veh C10orf10 (11716521_a_at) / RFU C5orf56 (11738089_at) / Fold change /veh C5orf56 (11738089_at) / RFU CYB561 (11721691_x_at) / Fold change /veh CYB561 (11721691_x_at) / RFU ANKRD19P (11752326_a_at) / Fold change /veh ANKRD19P (11752326_a_at) / RFU OR2T12 /// OR2T33 /// OR2T8 (11738714_s_at) / Fold change /veh OR2T12 /// OR2T33 /// OR2T8 (11738714_s_at) / RFU VCAN (11748164_a_at) / Fold change /veh VCAN (11748164_a_at) / RFU JSRP1 (11732532_at) / Fold change /veh JSRP1 (11732532_at) / RFU KRTAP10-11 (11738290_x_at) / Fold change /veh KRTAP10-11 (11738290_x_at) / RFU MYO3A (11730013_a_at) / Fold change /veh MYO3A (11730013_a_at) / RFU EBF3 (11725865_a_at) / Fold change /veh EBF3 (11725865_a_at) / RFU CAMK2N1 (11719241_x_at) / Fold change /veh CAMK2N1 (11719241_x_at) / RFU C5orf56 (11738088_a_at) / Fold change /veh C5orf56 (11738088_a_at) / RFU OLFML3 (11715873_a_at) / Fold change /veh OLFML3 (11715873_a_at) / RFU LOC100653217 /// NTM (11731650_a_at) / Fold change /veh LOC100653217 /// NTM (11731650_a_at) / RFU MAPK11 (11762145_a_at) / Fold change /veh MAPK11 (11762145_a_at) / RFU FIZ1 (11724087_x_at) / Fold change /veh FIZ1 (11724087_x_at) / RFU OASL (11726364_x_at) / Fold change /veh OASL (11726364_x_at) / RFU SOX15 (11748057_x_at) / Fold change /veh SOX15 (11748057_x_at) / RFU CD79A (11719716_a_at) / Fold change /veh CD79A (11719716_a_at) / RFU HIST1H1D (11736915_at) / Fold change /veh HIST1H1D (11736915_at) / RFU CASKIN2 (11723855_a_at) / Fold change /veh CASKIN2 (11723855_a_at) / RFU LOC730098 (11760151_x_at) / Fold change /veh LOC730098 (11760151_x_at) / RFU OR4N2 (11742367_at) / Fold change /veh OR4N2 (11742367_at) / RFU PRRT2 (11749266_a_at) / Fold change /veh PRRT2 (11749266_a_at) / RFU SNX32 (11753110_a_at) / Fold change /veh SNX32 (11753110_a_at) / RFU CDHR5 (11726645_a_at) / Fold change /veh CDHR5 (11726645_a_at) / RFU RCAN1 (11760418_a_at) / Fold change /veh RCAN1 (11760418_a_at) / RFU FAM167A (11723789_a_at) / Fold change /veh FAM167A (11723789_a_at) / RFU FAM26E (11764081_at) / Fold change /veh FAM26E (11764081_at) / RFU ISYNA1 (11749810_s_at) / Fold change /veh ISYNA1 (11749810_s_at) / RFU ACY1 (11761880_at) / Fold change /veh ACY1 (11761880_at) / RFU 11764098_at / Fold change /veh 11764098_at / RFU SAMD14 (11745864_x_at) / Fold change /veh SAMD14 (11745864_x_at) / RFU NPB (11741838_a_at) / Fold change /veh NPB (11741838_a_at) / RFU TMPRSS6 (11731388_a_at) / Fold change /veh TMPRSS6 (11731388_a_at) / RFU KRTAP10-2 (11738614_at) / Fold change /veh KRTAP10-2 (11738614_at) / RFU ARHGAP8 /// PRR5-ARHGAP8 (11727945_x_at) / Fold change /veh ARHGAP8 /// PRR5-ARHGAP8 (11727945_x_at) / RFU KRTAP5-7 /// NADSYN1 (11734609_at) / Fold change /veh KRTAP5-7 /// NADSYN1 (11734609_at) / RFU RASL12 (11751679_a_at) / Fold change /veh RASL12 (11751679_a_at) / RFU CDKN2B (11736163_a_at) / Fold change /veh CDKN2B (11736163_a_at) / RFU PRF1 (11729649_at) / Fold change /veh PRF1 (11729649_at) / RFU, ZNF638 /// ZNF638-IT1 / Fold change vs veh, ZNF638 /// ZNF638-IT1 / RFU, PANK3 / Fold change vs veh, PANK3 / RFU, SH3YL1 / Fold change vs veh, SH3YL1 / RFU, ZEB2 / Fold change vs veh, ZEB2 / RFU, NRIP1 / Fold change vs veh, NRIP1 / RFU, PTTG1IP / Fold change vs veh, PTTG1IP / RFU, CAPN2 / Fold change vs veh, CAPN2 / RFU, MED14 / Fold change vs veh, MED14 / RFU, SNORA58 / Fold change vs veh, SNORA58 / RFU, C1orf63 / Fold change vs veh, C1orf63 / RFU, LRRFIP1 / Fold change vs veh, LRRFIP1 / RFU, NDUFAF7 / Fold change vs veh, NDUFAF7 / RFU, SLC12A2 / Fold change vs veh, SLC12A2 / RFU, IBTK / Fold change vs veh, IBTK / RFU, ESF1 / Fold change vs veh, ESF1 / Fold change vs veh, TMEM50B / RFU, TAOK1 / Fold change vs veh, TAOK1 / RFU, ACBD3 / Fold change vs veh, ACBD3 / RFU, TMA16 / Fold change vs veh, TMA16 / RFU, RWDD3 / Fold change vs veh, RWDD3 / RFU, BCAT1 / Fold change vs veh, BCAT1 / RFU, EDEM3 / Fold change vs veh, EDEM3 / RFU, TMEM33 / Fold change vs veh, TMEM33 / RFU, WDR75 / Fold change vs veh, WDR75 / RFU, AHCTF1 / Fold change vs veh, AHCTF1 / RFU, TFRC / Fold change vs veh, TFRC / RFU, ZDHHC17 / Fold change vs veh, ZDHHC17 / RFU, NOM1 / Fold change vs veh, NOM1 / RFU, ARL8B / Fold change vs veh, ARL8B / RFU, ZBTB11 / Fold change vs veh, ZBTB11 / RFU, TAMM41 / Fold change vs veh, TAMM41 / RFU, KIAA1704 /// LOC100996395 / Fold change vs veh, KIAA1704 /// LOC100996395 / RFU, ING1 / Fold change vs veh, ING1 / RFU, TRMT61B / Fold change vs veh, TRMT61B / RFU, FUBP3 / Fold change vs veh, FUBP3 / RFU, TP53 / Fold change vs veh, TP53 / RFU, TNKS2 / Fold change vs veh, TNKS2 / RFU, ZFP14 / Fold change vs veh, ZFP14 / RFU, ACTR2 / Fold change vs veh, ACTR2 / RFU, PPP3R1 / Fold change vs veh, PPP3R1 / RFU, PIK3R1 / Fold change vs veh, PIK3R1 / RFU, HNRNPA1 / Fold change vs veh, HNRNPA1 / RFU, RNF170 / Fold change vs veh, RNF170 / RFU, ZNF28 / Fold change vs veh, ZNF28 / RFU, RNGTT / Fold change vs veh, RNGTT / RFU, OGT / Fold change vs veh, OGT / RFU, BRD1 / Fold change vs veh, BRD1 / RFU, MARS / Fold change vs veh, MARS / RFU, ZNF655 / Fold change vs veh, ZNF655 / RFU, FAHD1 / Fold change vs veh, FAHD1 / RFU, BDP1 / Fold change vs veh, BDP1 / RFU, LRRCC1 / Fold change vs veh, LRRCC1 / RFU, ARID1A / Fold change vs veh, ARID1A / RFU, ZNF146 / Fold change vs veh, ZNF146 / RFU, ZNF330 / Fold change vs veh, ZNF330 / RFU, GPN3 / Fold change vs veh, GPN3 / RFU, C9orf123 / Fold change vs veh, C9orf123 / RFU, N4BP2L2 / Fold change vs veh, N4BP2L2 / RFU, ARFIP1 / Fold change vs veh, ARFIP1 / RFU, FAM179B / Fold change vs veh, FAM179B / RFU, BCL10 / Fold change vs veh, BCL10 / RFU, UHRF1BP1L / Fold change vs veh, UHRF1BP1L / RFU, BET1 / Fold change vs veh, BET1 / RFU, CNOT2 / Fold change vs veh, CNOT2 / RFU, ZNF268 / Fold change vs veh, ZNF268 / Fold change vs veh, ZNF507 / RFU, DGCR2 / Fold change vs veh, DGCR2 / RFU, WDSUB1 / Fold change vs veh, WDSUB1 / Fold change vs veh, HSP90B1 /// MIR3652 / RFU, ADSS / Fold change vs veh, ADSS / RFU, GK / Fold change vs veh, GK / RFU, ZNF148 / Fold change vs veh, ZNF148 / RFU, TAF9 / Fold change vs veh, TAF9 / RFU, SLC1A5 / Fold change vs veh, SLC1A5 / RFU, SLMO2 / Fold change vs veh, SLMO2 / RFU, ABCC4 / Fold change vs veh, ABCC4 / RFU, LOC101060439 /// RAP1B / Fold change vs veh, LOC101060439 /// RAP1B / RFU, RFX7 / Fold change vs veh, RFX7 / RFU, GTPBP10 / Fold change vs veh, GTPBP10 / RFU, CNEP1R1 / Fold change vs veh, CNEP1R1 / RFU, BIVM-ERCC5 /// ERCC5 / Fold change vs veh, BIVM-ERCC5 /// ERCC5 / RFU, ILF3 / Fold change vs veh, ILF3 / RFU 11762660_at / Fold change /veh 11762660_at / RFU VCAN (11757783_s_at) / Fold change /veh VCAN (11757783_s_at) / RFU DDX43 (11728927_at) / Fold change /veh DDX43 (11728927_at) / RFU KRT8 (11758188_x_at) / Fold change /veh KRT8 (11758188_x_at) / RFU NKD1 (11759106_at) / Fold change /veh NKD1 (11759106_at) / RFU SRD5A1 (11742802_a_at) / Fold change /veh SRD5A1 (11742802_a_at) / RFU TPSAB1 /// TPSB2 (11721975_s_at) / Fold change /veh TPSAB1 /// TPSB2 (11721975_s_at) / RFU GSTM3 (11746129_a_at) / Fold change /veh GSTM3 (11746129_a_at) / RFU IL23R (11737362_x_at) / Fold change /veh IL23R (11737362_x_at) / RFU TMEM51 (11727254_a_at) / Fold change /veh TMEM51 (11727254_a_at) / RFU PIWIL2 (11732686_x_at) / Fold change /veh PIWIL2 (11732686_x_at) / RFU ORM1 (11744905_x_at) / Fold change /veh ORM1 (11744905_x_at) / RFU CCDC152 (11743942_at) / Fold change /veh CCDC152 (11743942_at) / RFU ECM1 (11717891_a_at) / Fold change /veh ECM1 (11717891_a_at) / RFU IL23R (11748794_a_at) / Fold change /veh IL23R (11748794_a_at) / RFU TNFAIP8L3 (11732012_x_at) / Fold change /veh TNFAIP8L3 (11732012_x_at) / RFU MBOAT4 (11741988_at) / Fold change /veh MBOAT4 (11741988_at) / RFU 11764193_at / Fold change /veh 11764193_at / RFU TMEM53 (11763286_at) / Fold change /veh TMEM53 (11763286_at) / RFU MAGEB2 (11727129_at) / Fold change /veh MAGEB2 (11727129_at) / RFU TMEM200A (11744735_a_at) / Fold change /veh TMEM200A (11744735_a_at) / RFU CCDC152 (11751479_a_at) / Fold change /veh CCDC152 (11751479_a_at) / RFU FAM211A (11726209_a_at) / Fold change /veh FAM211A (11726209_a_at) / RFU RGS16 (11746705_a_at) / Fold change /veh RGS16 (11746705_a_at) / RFU VCAN (11755009_s_at) / Fold change /veh VCAN (11755009_s_at) / RFU RHOB (11743442_s_at) / Fold change /veh RHOB (11743442_s_at) / RFU RGS16 (11720943_a_at) / Fold change /veh RGS16 (11720943_a_at) / RFU RGS16 (11720944_at) / Fold change /veh RGS16 (11720944_at) / RFU, VPS4B / Fold change vs veh, VPS4B / RFU, CREB1 / Fold change vs veh, CREB1 / RFU, DNAJC13 / Fold change vs veh, DNAJC13 / RFU, GNAQ / Fold change vs veh, GNAQ / RFU, CDK5R1 / Fold change vs veh, CDK5R1 / RFU, ZRANB3 / Fold change vs veh, ZRANB3 / RFU, CUL4A / Fold change vs veh, CUL4A / RFU, CCNY / Fold change vs veh, CCNY / RFU, UFL1 / Fold change vs veh, UFL1 / RFU, COG3 / Fold change vs veh, COG3 / RFU, DIAPH2 / Fold change vs veh, DIAPH2 / RFU, SKA2 / Fold change vs veh, SKA2 / RFU, AFF3 / Fold change vs veh, AFF3 / RFU, LMF1 / Fold change vs veh, LMF1 / RFU, IPO11 / Fold change vs veh, IPO11 / RFU, DFFB / Fold change vs veh, DFFB / RFU, FOXP1 / Fold change vs veh, FOXP1 / RFU, CARD8 / Fold change vs veh, CARD8 / RFU, STRN3 / Fold change vs veh, STRN3 / RFU, ADK / Fold change vs veh, ADK / RFU, RASSF2 / Fold change vs veh, RASSF2 / RFU, WIPF1 / Fold change vs veh, WIPF1 / RFU, LARP1B / Fold change vs veh, LARP1B / RFU, RASA1 / Fold change vs veh, RASA1 / RFU, RB1 / Fold change vs veh, RB1 / RFU, PPFIA1 / Fold change vs veh, PPFIA1 / RFU, MAT2A / Fold change vs veh, MAT2A / RFU, CCT5 / Fold change vs veh, CCT5 / RFU, WDR92 / Fold change vs veh, WDR92 / RFU, CUX1 / Fold change vs veh, CUX1 / RFU, TTC7A / Fold change vs veh, TTC7A / RFU, TMEM135 / Fold change vs veh, TMEM135 / RFU, DEPTOR / Fold change vs veh, DEPTOR / RFU, CPM / Fold change vs veh, CPM / RFU, DNAJB6 / Fold change vs veh, DNAJB6 / RFU, CACNA2D3 / Fold change vs veh, CACNA2D3 / RFU, DTX4 / Fold change vs veh, DTX4 / RFU, TFCP2 / Fold change vs veh, TFCP2 / RFU, GMCL1 /// GMCL1P1 / Fold change vs veh, GMCL1 /// GMCL1P1 / RFU, AEBP2 / Fold change vs veh, AEBP2 / RFU, SNHG1 /// SNORD22 /// SNORD25 /// SNORD26 /// SNORD27 /// SNORD28 /// SNORD29 /// SNORD31 / Fold change vs veh, SNHG1 /// SNORD22 /// SNORD25 /// SNORD26 /// SNORD27 /// SNORD28 /// SNORD29 /// SNORD31 / Fold change (Aza/veh), C12orf56 (ProbeSet 11735607_a_at) / Fold change (ACY-1035/veh), C12orf56 (ProbeSet 11735607_a_at) / Fold change (Aza/veh), FGFR1OP (ProbeSet 11751329_s_at) / Fold change (ACY-1035/veh), FGFR1OP (ProbeSet 11751329_s_at) / Fold change (Aza/veh), VPS36 (ProbeSet 11739960_a_at) / Fold change (ACY-1035/veh), VPS36 (ProbeSet 11739960_a_at) / RFU SYPL1 (11715823_x_at) / Fold change /veh SYPL1 (11715823_x_at) / RFU IGFBP7 (11715501_s_at) / Fold change /veh IGFBP7 (11715501_s_at) / RFU REEP3 (11722064_at) / Fold change /veh REEP3 (11722064_at) / RFU IGLL1 (11728026_x_at) / Fold change /veh IGLL1 (11728026_x_at): dose or concentration left out as unconfirmed
# Settings: MV-4-11 cells, 48 hours
smiles,measurement,value
Nc1ccc(-c2cccs2)cc1NC(=O)c1ccc2c(c1)cc(C1CC1)n2CCN1CCOCC1 [ACY-1035],RFU CLDN22 /// WWC2 (11732394_at),8.03 RFU
